Key:
Assay type in all cases: cell-based
[1] = molecular target: T1, 5-HT2A receptor (Homo sapiens, UniProt P28223); assay: FLIPR Ca2+ flux functional assay, agonist activity at 5-HT2A; conditions: HEK293 cells, Ca2+ flux; for EC50: read-out: 5-HT2A EC50
T1 construct: host or cells: HEK293
Experimental: (§1) Activity at 5-HT2A, 5-HT2B and 5-HT2C receptors was determined using a FLIPR Ca2+ flux assay at WuXi AppTec Co. Ltd. (Hong Kong) Discovery Biology Unit according to their standard protocols. Briefly, stably transfected cells expressing the receptor of interest (HEK293 for 5-HT2A and 5-HT2C; CHO-K1 for 5-HT2B) were grown and plated in a 384 well plate and incubated at 37° C. and 5% CO2 overnight. A 250 mM stock solution of probenecid in FLIPR calcium assay buffer (10 mL) was freshly prepared and combined with a fluorescent dye (Fluo-4 Direct) to give a final assay concentration of 2.5 mM. Reference compounds were 4-fold serially diluted and the screening compounds were 3-fold serially diluted in 100% DMSO for 10 points using Agilent Bravo, and 750 nL was added to a 384 well compound plate using Echo along with 30 μL assay buffer. The fluorescent dye was then added to the assay plate along with assay buffer to a final volume of 40 μL. The cell plate was incubated for 50 min at 37° C. and 5% CO2 and placed into the FLIPR Tetra along with the compound plate. 10 μL of references and compounds were then transferred from the compound plate into the cell plate and the fluorescent signal was read.

[2] = molecular target: T2, 5-HT2B receptor (Homo sapiens, UniProt P41595); assay: FLIPR Ca2+ flux functional assay, agonist activity at 5-HT2B; conditions: CHO-K1 cells, Ca2+ flux; for EC50: read-out: 5-HT2B EC50
T2 construct: host or cells: CHO-K1
Experimental: as §1

[3] = molecular target: T3, 5-HT2C receptor (Homo sapiens, UniProt P28335); assay: FLIPR Ca2+ flux functional assay, agonist activity at 5-HT2C; conditions: HEK293 cells, Ca2+ flux; for EC50: read-out: 5-HT2C EC50
T3 construct: host or cells: HEK293
T3 sequence (P28335 33-458): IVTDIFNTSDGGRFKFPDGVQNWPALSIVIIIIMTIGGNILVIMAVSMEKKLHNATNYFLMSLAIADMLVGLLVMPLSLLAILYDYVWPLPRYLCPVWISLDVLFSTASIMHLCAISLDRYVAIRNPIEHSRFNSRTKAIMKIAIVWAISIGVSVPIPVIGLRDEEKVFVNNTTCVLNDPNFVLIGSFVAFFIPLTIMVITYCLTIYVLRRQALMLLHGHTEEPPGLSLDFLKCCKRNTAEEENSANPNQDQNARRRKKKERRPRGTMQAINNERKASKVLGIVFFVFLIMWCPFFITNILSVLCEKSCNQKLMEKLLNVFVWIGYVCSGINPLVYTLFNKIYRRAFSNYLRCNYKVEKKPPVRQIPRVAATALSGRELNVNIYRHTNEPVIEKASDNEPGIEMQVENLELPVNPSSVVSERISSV
Experimental: as §1

T2 sequence (P41595 whole entry): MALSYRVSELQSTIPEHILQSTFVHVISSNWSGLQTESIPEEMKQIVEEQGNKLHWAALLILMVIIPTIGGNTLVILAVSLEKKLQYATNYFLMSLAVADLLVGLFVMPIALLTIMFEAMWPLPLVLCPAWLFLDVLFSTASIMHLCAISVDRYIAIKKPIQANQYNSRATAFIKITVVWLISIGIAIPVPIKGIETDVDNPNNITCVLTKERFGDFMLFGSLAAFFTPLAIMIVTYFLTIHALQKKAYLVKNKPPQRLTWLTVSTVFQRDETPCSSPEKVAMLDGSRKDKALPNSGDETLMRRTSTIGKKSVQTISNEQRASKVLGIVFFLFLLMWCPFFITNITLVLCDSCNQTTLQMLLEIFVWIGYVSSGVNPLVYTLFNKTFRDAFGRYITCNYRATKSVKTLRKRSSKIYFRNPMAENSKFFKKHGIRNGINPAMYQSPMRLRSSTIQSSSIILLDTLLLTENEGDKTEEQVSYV
T1 sequence (P28223 whole entry): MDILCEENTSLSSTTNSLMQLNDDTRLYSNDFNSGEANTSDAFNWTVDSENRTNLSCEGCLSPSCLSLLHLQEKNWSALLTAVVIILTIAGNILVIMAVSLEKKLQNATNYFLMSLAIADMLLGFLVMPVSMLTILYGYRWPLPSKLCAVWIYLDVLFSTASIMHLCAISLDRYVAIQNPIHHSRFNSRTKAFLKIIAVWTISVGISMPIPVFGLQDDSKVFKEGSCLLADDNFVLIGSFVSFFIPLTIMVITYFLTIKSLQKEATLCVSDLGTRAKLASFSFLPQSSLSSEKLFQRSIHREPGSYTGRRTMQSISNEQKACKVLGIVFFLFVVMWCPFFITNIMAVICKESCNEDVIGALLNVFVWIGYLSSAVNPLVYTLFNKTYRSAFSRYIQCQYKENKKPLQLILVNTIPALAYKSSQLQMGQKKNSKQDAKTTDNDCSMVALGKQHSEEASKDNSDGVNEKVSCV

SMILES	Emax [1] [%]	EC50 [1] [µM]	Emax [2] [%]	EC50 [2] [µM]	Emax [3] [%]	EC50 [3] [µM]
CN(C)CCc1n[nH]c2cccc(O)c12 [Example P-56, 3-(2-(dimethylamino)ethyl)-1H-indazol-4-ol]	50.5	0.794	-0.39	> 10	63.6	1.26
CCN(C)CCc1c[nH]c2nccc(C)c12 [Example P-31, N-ethyl-N-methyl-2-(4-methyl-1H-pyrrolo[2,3-b]pyridin-3-yl)ethan-1-amine]	54.5	1.02	1.01	> 10	0.01	> 10
CCN(CC)CCc1c[nH]c2nccc(OC)c12 [Example P-26, N,N-diethyl-2-(4-methoxy-1H-pyrrolo[2,3-b]pyridin-3-yl)ethan-1-amine]	58.3	1.62	3.08	> 10	0.9	> 10
CCCN(CCC)CCc1n[nH]c2cccc(OC)c12 [Example P-44, 2-(4-methoxy-1H-indazol-3-yl)-N,N-dipropylethan-1-amine]		0.259		0.49		1.7
COc1nccc2[nH]cc(CCN(C)C(C)C)c12 [Example P-38, N-(2-(4-methoxy-1H-pyrrolo[3,2-c]pyridin-3-yl)ethyl)-N-methylpropan-2-amine]	83.1	0.0777	19.6	0.61	70.2	1.92
CCN(C)CCc1c[nH]c2nccc(OC)c12 [Example P-28, N-ethyl-2-(4-methoxy-1H-pyrrolo[2,3-b]pyridin-3-yl)-N-methylethan-1-amine]	70.5	0.782	0.69	> 10	-0.06	> 10
COc1ccc2onc(CCN(C)C)c2c1 [Example P-9, 2-(5-methoxybenzo[d]isoxazol-3-yl)-N,N-dimethylethan-1-amine]	37.3	1.02	2.53	> 10	-30.5	> 10
CCN(CC)CCc1c[nH]c2ccc(OC)nc12 [Example P-10, 2-(5-Methoxy-1H-pyrrolo[3,2-b]pyridin-3-yl)-N,N-diethylethan-1-amine]	82.8	0.00611	47.1	0.284	99.1	0.0686
COc1cnc2[nH]cc(CCN(C(C)C)C(C)C)c2c1 [Example P-19, N-isopropyl-N-(2-(5-methoxy-1H-pyrrolo[2,3-b]pyridin-3-yl)ethyl)propan-2-amine]	112	0.0729	13.3	> 10	0.16	> 10
CCCN(CCC)CCc1c[nH]c2ccnc(OC)c12 [Example P-35, N,N-dipropyl-2-(4-methoxy-1H-pyrrolo[3,2-c]pyridin-3-yl)ethan-1-amine]	82.2	0.079	74.7	0.0785	55.6	7.18
COc1cnc2[nH]cc(CCN(C)C(C)C)c2c1 [Example P-21, N-(2-(5-methoxy-1H-pyrrolo[2,3-b]pyridin-3-yl)ethyl)-N-methylpropan-2-amine]	79.8	0.109	4.56	> 10	-0.15	> 10
CCCN(CCC)CCc1n[nH]c2cccc(O)c12 [Example P-45, 3-(2-(dipropylamino)ethyl)-1H-indazol-4-ol]		0.16		> 10		> 10

— patent US20250163044A1, “COMPOUNDS” (PSYLO PTY LTD, priority 2021, published 2025)
